In US10532109B2, “Peptide-DNA chimeras for treatment of HER overexpressing cancers” (ARIZONA BOARD OF REGENTS ON BEHALF OF ARIZONA STATE …, priority 2016, dated 2020):
“Also recorded” adds a separate entry of the source. Where two headings read alike, the source gives them in different places.

Assays:
[1] = test system: BT474 human breast cancer cells (overexpression of HER2); assay: Cancer cell inhibition assay (MTT), BT474; assay type: cell-based; conditions: for inhibition at 0.32 µM: BT-474, 320 nM doxorubicin, free or as 6.4 nM IV (1:50 III-doxorubicin); for inhibition at 0.32 µM / inhibition at 0.64 µM: read-out: inhibition of BT474 cell growth; for inhibition at 0.64 µM: BT-474, 640 nM doxorubicin, free or as 12.8 nM IV
Description: Exponentially growing BT474 cells and MDA-MB-231 cells were harvested and plated in 96-well plates at a concentration of 2×10^4 cells/well for BT474 cells and 5×10^4 cells/well for MDA-MB231 cells. […] Then 20 μL of MTT (5 mg/mL) was added to each well and the plates were incubated at 37° C. for 4 hours. The supernatant was discarded, and 100 μL of DMSO was added to each well. The absorbance was recorded at 490 nm after 15 minutes. Inhibition of cell growth was obtained by the following formula: Inhibition (%)=(ODTreatment−ODbackground)/(ODNagative control−ODbackground)×100%

[2] = test system: MDA-MB-231 human breast cancer cells (low expression of HER2 receptor); assay: Cancer cell inhibition assay (MTT), MDA-MB-231; assay type: cell-based; conditions: 48, 72, 96 h
Description: BT474 human breast cancer cells (ATCC® HTB-20™, overexpression of HER2) and MDA-MB-231 human breast cancer cells (ATCC® HTB-26™, low expression of HER2 receptor) were cultured at 37° C. in a 5% CO2 atmosphere and grown in Gibco® RPMI 1640 medium supplemented with 10% fetal bovine serum (FBS) and 1% antibiotic-antimycotic mix antibiotic supplement before use.
Exponentially growing BT474 cells and MDA-MB-231 cells were harvested and plated in 96-well plates at a concentration of 2×10^4 cells/well for BT474 cells and 5×10^4 cells/well for MDA-MB231 cells. […] Then 20 μL of MTT (5 mg/mL) was added to each well and the plates were incubated at 37° C. for 4 hours. The supernatant was discarded, and 100 μL of DMSO was added to each well. The absorbance was recorded at 490 nm after 15 minutes. Inhibition of cell growth was obtained by the following formula: […]
Data are reported as the mean of three independent experiments, each run in quintuplicate.

BT474 cells = assay: HER2 binding assay (fluorescence microscopy), BT474; assay type: cell-based, human; conditions: 1 μM; 1 hour
Description: (§1) BT474 cells and MDA-MB-231 cells were grown on glass bottom microwell disks at a cell density of approximately 10,000 cells/well at 37° C. for 48 hours. […] Then the cells were stained using 2.5 μg/mL DAPI (Invitrogen) for 30 minutes after the cells were rinsed with phosphate buffered saline (PBS) for two times. Finally, the cells were fixed with 4% paraformaldehyde for 10 minutes. The fluorescent images were obtained using a fluorescence microscope (Nikon Ti-U, Japan) with red and green filters. Thereafter, all images were recorded and the target cells counted using a 40× oil objective. To ensure accurate intensity measurements, the exposure time (3000 ms) and laser time were kept the same. The mean pixel intensity within the region of interest was calculated. Data are reported as the mean of three independent experiments, each run in quintuplicate. The data was expressed as mean±SD.

MDA-MB-231 cells = assay: HER2 binding assay (fluorescence microscopy), MDA-MB-231; assay type: cell-based, human; conditions: 1 μM; 1 hour
Description: as §1

COc1cccc2c1C(=O)c1c(O)c3c(c(O)c1C2=O)C[C@@](O)(C(=O)CO)C[C@@H]3O[C@H]1C[C@H](N)[C@H](O)[C@H](C)O1 [doxorubicin]
inhibition at 0.32 µM ([1]; 48 h): 19% | inhibition at 0.32 µM ([1]; 72 h): 43% | inhibition at 0.32 µM ([1]; 96 h): 44% | inhibition at 0.64 µM ([1]; 48 h): 36% | inhibition at 0.64 µM ([1]; 72 h): 68% | inhibition at 0.64 µM ([1]; 96 h): 78% | inhibition at 0.16 µM ([1]; BT-474, read-out: average inhibition of BT474 cell growth): 10% | fold higher average percent inhibition of MDA-MB-231 by doxorubicin than IV ([2]; 160 nM doxorubicin concentration): 1.0-2.3 fold | fold higher average percent inhibition of MDA-MB-231 by doxorubicin than IV ([2]; 320 nM doxorubicin concentration): 1.3-2.0 fold | fold higher average percent inhibition of MDA-MB-231 by doxorubicin than IV ([2]; 640 nM doxorubicin concentration): 1.6-2.0 fold | binding ability to BT474 cells (fluorescence on cell surface, in words) (BT474 cells): relatively weak fluorescence intensity; also recorded: relatively weak ability | binding selectivity between BT474 and MDA-MB-231 cells (BT474 cells): did not show any binding selectivity; also recorded: did not shown any selectivity | binding ability to MDA-MB-231 cells (fluorescence on cell surface, in words) (MDA-MB-231 cells): relatively weak fluorescence intensity; also recorded: relatively weak ability
